Assay results from ChEMBL document CHEMBL1649561, “H-NS modulates multidrug resistance of Salmonella enterica serovar Typhimurium by repressing multidrug efflux genes acrEF” (2009).
Converted amounts (≈) assume the structure as drawn.

Key:
Format in all cases: functional
[1] = system: Salmonella enterica; test: Antibacterial activity against acrB-deficient Salmonella enterica NKS175 by CLSI method
[2] = system: Salmonella enterica; test: Antibacterial activity against acrEF-deficient Salmonella enterica NKS176 by CLSI method
[3] = system: Salmonella enterica; test: Antibacterial activity against acrB-deficient Salmonella enterica NKS416 harboring acrEF, hns gene by CLSI method
[4] = system: Salmonella enterica; test: Antibacterial activity against acrB-deficient Salmonella enterica NKS422 harboring acrEF gene by CLSI method
[5] = system: Salmonella enterica; test: Antibacterial activity against Salmonella enterica ATCC 14028 by CLSI method
[6] = system: Salmonella enterica; test: Antibacterial activity against tolC-deficient Salmonella enterica NKS419 harboring hns gene by CLSI method
[7] = system: Salmonella enterica; test: Antibacterial activity against acrB-deficient Salmonella enterica NKS291 harboring hns gene by CLSI method
[8] = system: Salmonella enterica; test: Antibacterial activity against tolC-deficient Salmonella enterica NKS174 by CLSI method

SMILES: Cn1nnnc1SCC1=C(C(=O)O)N2C(=O)[C@@H](NC(=O)[C@H](O)c3ccccc3)[C@H]2SC1 [CEFAMANDOLE]
- MIC [1]: 0.063 µg/mL (≈ 0.136 µM)
- MIC [2]: 0.5 µg/mL (≈ 1.08 µM)
- MIC [3]: 0.063 µg/mL (≈ 0.136 µM)
- MIC [4]: 0.063 µg/mL (≈ 0.136 µM)
- MIC [5]: 1 µg/mL (≈ 2.16 µM)
- MIC [6]: 0.063 µg/mL (≈ 0.136 µM)
- MIC [7]: 0.25 µg/mL (≈ 0.541 µM)
- MIC [8]: 0.063 µg/mL (≈ 0.136 µM)

SMILES: Cc1onc(-c2ccccc2Cl)c1C(=O)N[C@@H]1C(=O)N2[C@@H]1SC(C)(C)[C@@H]2C(=O)O [CLOXACILLIN]
- MIC [1]: 4 µg/mL (≈ 9.18 µM)
- MIC [2]: 512 µg/mL (≈ 1170 µM)
- MIC [3]: 4 µg/mL (≈ 9.18 µM)
- MIC [4]: 4 µg/mL (≈ 9.18 µM)
- MIC [5]: 512 µg/mL (≈ 1170 µM)
- MIC [6]: 0.5 µg/mL (≈ 1.15 µM)
- MIC [7]: 128 µg/mL (≈ 294 µM)
- MIC [8]: 0.5 µg/mL (≈ 1.15 µM)

SMILES: CN(C)c1ccc2nc3ccc(N(C)C)cc3[s+]c2c1.[Cl-] [METHYLENE BLUE ANHYDROUS]
- MIC [1]: 16 µg/mL
- MIC [2]: > 512 µg/mL
- MIC [3]: 16 µg/mL
- MIC [4]: 16 µg/mL
- MIC [5]: > 512 µg/mL
- MIC [6]: 16 µg/mL
- MIC [7]: 512 µg/mL
- MIC [8]: 16 µg/mL

SMILES: CCOc1ccc2ccccc2c1C(=O)N[C@@H]1C(=O)N2[C@@H]1SC(C)(C)[C@@H]2C(=O)O [NAFCILLIN]
- MIC [1]: 8 µg/mL (≈ 19.3 µM)
- MIC [2]: > 512 µg/mL
- MIC [3]: 4 µg/mL (≈ 9.65 µM)
- MIC [4]: 4 µg/mL (≈ 9.65 µM)
- MIC [5]: > 512 µg/mL
- MIC [6]: 1 µg/mL (≈ 2.41 µM)
- MIC [7]: 64 µg/mL (≈ 154 µM)
- MIC [8]: 1 µg/mL (≈ 2.41 µM)

SMILES: Cc1onc(-c2ccccc2)c1C(=O)N[C@@H]1C(=O)N2[C@@H]1SC(C)(C)[C@@H]2C(=O)O [OXACILLIN]
- MIC [1]: 2 µg/mL (≈ 4.98 µM)
- MIC [2]: 512 µg/mL (≈ 1280 µM)
- MIC [3]: 1 µg/mL (≈ 2.49 µM)
- MIC [4]: 1 µg/mL (≈ 2.49 µM)
- MIC [5]: 512 µg/mL (≈ 1280 µM)
- MIC [6]: 0.5 µg/mL (≈ 1.25 µM)
- MIC [7]: 16 µg/mL (≈ 39.9 µM)
- MIC [8]: 0.5 µg/mL (≈ 1.25 µM)

SMILES: CC/N=c1\cc2oc3cc(NCC)c(C)cc3c(-c3ccccc3C(=O)OCC)c-2cc1C.Cl [RHODAMINE 6G HYDROCHLORIDE]
- MIC [1]: 8 µg/mL
- MIC [2]: > 512 µg/mL
- MIC [3]: 8 µg/mL
- MIC [4]: 8 µg/mL
- MIC [5]: > 512 µg/mL
- MIC [6]: 8 µg/mL
- MIC [7]: 32 µg/mL
- MIC [8]: 8 µg/mL
